Test results published in ChEMBL document CHEMBL1201862, “PubChem BioAssay data set” (2004).
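Compound exposure: 48 hours, 5 concentrations, 96-well plates. The concentration for 50% growth inhibition is given as GI50.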 Activity calls are given as the source filed them. No stated cut-off is given here; in the data, active = GI50 up to about 1.1 µM and inactive = higher.

What was measured:
Test in all cases: DTP human tumour cell line panel, 48 h
[1] = test system: LOX IMVI
[2] = test system: MDA-MB-231
[3] = test system: HT-29
[4] = test system: UO-31
[5] = test system: OVCAR-4
[6] = test system: SK-MEL-5
[7] = test system: RPMI-8226
[8] = test system: SR
[9] = test system: MDA-MB-435
[10] = test system: OVCAR-8
[11] = test system: SNB-75
[12] = test system: K562
[13] = test system: SF-268
[14] = test system: CCRF-CEM
[15] = test system: TK-10
[16] = test system: OVCAR-3
[17] = test system: SW-620
[18] = test system: SNB-19
[19] = test system: M14
[20] = test system: SK-OV-3

Measured: GI50

CO[C@H]1Nc2c(ccc(C)c2O)C(=O)N2C=C(/C=C/C(N)=O)C[C@@H]12 [ANTHRAMYCIN METHYL ETHER]
active: [1] 16.1 nM | [2] 15.9 nM | [3] 25.6 nM | [4] 17.5 nM | [5] 52 nM | [6] 16.8 nM | [7] 24.2 nM | [8] < 23.4 nM | [9] 14 nM | [10] 39.4 nM | [11] 22.8 nM | [12] 39.6 nM | [13] 18.3 nM | [14] 19.3 nM | [15] 58.5 nM | [16] 51.6 nM | [17] 30.8 nM | [18] < 17.9 nM | [19] 14.3 nM | [20] 40.5 nM
